This note sets out measurements from ChEMBL document CHEMBL6078668, “Synthesis and biological evaluation of lappaconitine analogues as potential anti-neuroinflammatory agents by side chain modification and scaffold hopping strategy” (Bioorg Med Chem, 2025).

Series [1] in a line: Cytotoxicity against C57BL/6 mouse BV-2 cells assessed as survival rate at 30 uM incubated for 24 hrs by MTT assay relative to control. The class given is toxicity, cell-based. As to conditions: read-out: Survival.
A further series deals with BV-2. The series is described as follows: Anti-neuroinflammatory activity against LPS-stimulated C57BL/6 mouse BV-2 cells assessed as inhibition of NO release at 30 uM preincubated with compound for 4 hrs followed by LPS addition and measured after 24 hrs by Griess reagent based assay relative to control. The class given is functional. The following applies: C57BL/6, BV-2, time 28 hrs.

Consider `CCN1C[C@]2(OC(=O)c3ccccc3NC(=O)S(=O)(=O)c3cccc(C)c3)CC[C@H](OC)[C@]34C1[C@@H](C[C@H]23)[C@@]1(O)C[C@H](OC)[C@H]2C[C@@H]4[C@]1(O)[C@H]2OC`, for which the viability at 24 h, 30 µM in series [1] worked out at 106%. For the same compound, the inhibition at 30 µM in the series with BV-2 turned out to be 46.5%.

On to `CCN1C[C@]2(OC(=O)c3ccccc3NC(=O)S(=O)(=O)c3cccc4cccnc34)CC[C@H](OC)[C@]34C1[C@@H](C[C@H]23)[C@@]1(O)C[C@H](OC)[C@H]2C[C@@H]4[C@]1(O)[C@H]2OC`, for which the viability at 24 h, 30 µM in series [1] was 103%. For the same compound, in the series on BV-2, the inhibition at 30 µM worked out at 46.2%.

Turning to `CCN1C[C@]2(COC(=O)c3ccccc3NS(=O)(=O)c3ccc(Br)s3)CC[C@H](OC)[C@]34C1[C@@H](C[C@H]23)[C@@]1(O)C[C@H](OC)[C@H]2C[C@@H]4[C@]1(O)[C@H]2O`, the viability at 24 h, 30 µM in series [1] worked out at 104%. In the series on BV-2, the inhibition at 30 µM turned out to be 26.2%.

Turning to `CCCCOC(=O)c1ccccc1NC(=O)c1ccc(CC)cc1`, in series [1], the viability at 24 h, 30 µM is 103%. Also, the inhibition at 30 µM with BV-2 amounted to 30.4%.

In the case of `CCN1C[C@]2(OC(=O)c3ccccc3NC(=O)c3ccccc3)CC[C@H](OC)[C@]34C1[C@@H](C[C@H]23)[C@@]1(O)C[C@H](OC)[C@H]2C[C@@H]4[C@]1(O)[C@H]2OC`, the viability at 24 h, 30 µM in series [1] came to 107%. In addition, the inhibition at 30 µM with BV-2 is 36%.

Regarding `CCN1C[C@]2(OC(=O)c3ccccc3NC(=O)c3cccc(C#N)c3)CC[C@H](OC)[C@]34C1[C@@H](C[C@H]23)[C@@]1(O)C[C@H](OC)[C@H]2C[C@@H]4[C@]1(O)[C@H]2OC`, the viability at 24 h, 30 µM in series [1] was found to be 101%. The inhibition at 30 µM in the series with BV-2 was 12.8%.

With `CCN1C[C@]2(O)CC[C@H](OC)[C@]34C1[C@@H](C[C@H]23)[C@@]1(O)C[C@H](OC)[C@H]2C[C@@H]4[C@]1(O)[C@H]2OC`, the viability at 24 h, 30 µM in series [1] was found to be 97.4%. In addition, the inhibition at 30 µM in the series on BV-2 came to 8.8%.

Take `CCN1C[C@]2(OC(=O)c3ccccc3NC(=O)c3ccccc3Cl)CC[C@H](OC)[C@]34C1[C@@H](C[C@H]23)[C@@]1(O)C[C@H](OC)[C@H]2C[C@@H]4[C@]1(O)[C@H]2OC`: the viability at 24 h, 30 µM in series [1] was 104%. Besides, the inhibition at 30 µM in the series with BV-2 was found to be 12.8%.

In the case of `CCN1C[C@]2(OC(=O)c3ccccc3NC(=O)S(=O)(=O)c3ccc(C4CCCCC4)cc3)CC[C@H](OC)[C@]34C1[C@@H](C[C@H]23)[C@@]1(O)C[C@H](OC)[C@H]2C[C@@H]4[C@]1(O)[C@H]2OC`, the viability at 24 h, 30 µM in series [1] was found to be 93.7%. The inhibition at 30 µM with BV-2 worked out at 38.5%.

Turning to `CCN1C[C@]2(COC(=O)c3ccccc3NS(=O)(=O)c3cccc(F)c3)CC[C@H](OC)[C@]34C1[C@@H](C[C@H]23)[C@@]1(O)C[C@H](OC)[C@H]2C[C@@H]4[C@]1(O)[C@H]2O`, in series [1], the viability at 24 h, 30 µM was found to be 106%. In addition, the inhibition at 30 µM in the series on BV-2 worked out at 17.9%.

In the case of `CCN1C[C@]2(OC(=O)c3ccccc3NC(=O)S(=O)(=O)c3ccc(Cl)nc3)CC[C@H](OC)[C@]34C1[C@@H](C[C@H]23)[C@@]1(O)C[C@H](OC)[C@H]2C[C@@H]4[C@]1(O)[C@H]2OC`, the viability at 24 h, 30 µM in series [1] worked out at 104%. The inhibition at 30 µM with BV-2 is 33.5%.

Consider `CCN1C[C@]2(OC(=O)c3ccccc3NC(=O)S(=O)(=O)c3ccc(NC(C)=O)cc3)CC[C@H](OC)[C@]34C1[C@@H](C[C@H]23)[C@@]1(O)C[C@H](OC)[C@H]2C[C@@H]4[C@]1(O)[C@H]2OC`, for which the viability at 24 h, 30 µM in series [1] is 104%. Besides, in the series with BV-2, the inhibition at 30 µM was 10.4%.

As for `CCN1C[C@]2(OC(=O)c3ccccc3NC(=O)S(=O)(=O)/C=C/c3ccccc3)CC[C@H](OC)[C@]34C1[C@@H](C[C@H]23)[C@@]1(O)C[C@H](OC)[C@H]2C[C@@H]4[C@]1(O)[C@H]2OC`, the viability at 24 h, 30 µM in series [1] came out at 108%. The inhibition at 30 µM in the series on BV-2 stood at 29.4%.

In the case of `CCN1C[C@]2(OC(=O)c3ccccc3NC(=O)S(=O)(=O)c3cc(F)ccc3F)CC[C@H](OC)[C@]34C1[C@@H](C[C@H]23)[C@@]1(O)C[C@H](OC)[C@H]2C[C@@H]4[C@]1(O)[C@H]2OC`, in series [1], the viability at 24 h, 30 µM worked out at 105%. Besides, the inhibition at 30 µM in the series with BV-2 turned out to be 53.7%.

Turning to `CCN1C[C@]2(OC(=O)c3ccccc3NC(=O)S(=O)(=O)c3ccc(Br)cc3)CC[C@H](OC)[C@]34C1[C@@H](C[C@H]23)[C@@]1(O)C[C@H](OC)[C@H]2C[C@@H]4[C@]1(O)[C@H]2OC`, in series [1], the viability at 24 h, 30 µM stood at 109%. In the series with BV-2, the inhibition at 30 µM is 40.8%.

Regarding `CCN1C[C@]2(OC(=O)c3ccccc3NC(=O)S(=O)(=O)c3ccc(-c4ccccc4)cc3)CC[C@H](OC)[C@]34C1[C@@H](C[C@H]23)[C@@]1(O)C[C@H](OC)[C@H]2C[C@@H]4[C@]1(O)[C@H]2OC`, in series [1], the viability at 24 h, 30 µM amounted to 102%. In addition, in the series with BV-2, the inhibition at 30 µM stood at 41.9%.

For `CCN1C[C@]2(OC(=O)c3ccccc3NC(=O)c3ccc(OC)cc3)CC[C@H](OC)[C@]34C1[C@@H](C[C@H]23)[C@@]1(O)C[C@H](OC)[C@H]2C[C@@H]4[C@]1(O)[C@H]2OC`, in series [1], the viability at 24 h, 30 µM was 100%. Moreover, the inhibition at 30 µM with BV-2 turned out to be 45.2%.

As to `CCN1C[C@]2(OC(=O)c3ccccc3NC(=O)c3ccccc3F)CC[C@H](OC)[C@]34C1[C@@H](C[C@H]23)[C@@]1(O)C[C@H](OC)[C@H]2C[C@@H]4[C@]1(O)[C@H]2OC`, in series [1], the viability at 24 h, 30 µM was 105%. Moreover, the inhibition at 30 µM with BV-2 stood at 17.3%.

On to `CCN1C[C@]2(OC(=O)c3ccccc3NC(=O)S(=O)(=O)c3ccccc3C(F)(F)F)CC[C@H](OC)[C@]34C1[C@@H](C[C@H]23)[C@@]1(O)C[C@H](OC)[C@H]2C[C@@H]4[C@]1(O)[C@H]2OC`, for which, in series [1], the viability at 24 h, 30 µM came to 107%. The inhibition at 30 µM with BV-2 was found to be 13.7%.

`CCN1C[C@]2(OC(=O)c3ccccc3NC(=O)S(=O)(=O)c3ccc(OC)c(F)c3)CC[C@H](OC)[C@]34C1[C@@H](C[C@H]23)[C@@]1(O)C[C@H](OC)[C@H]2C[C@@H]4[C@]1(O)[C@H]2OC`: in series [1], the viability at 24 h, 30 µM was found to be 103%. Moreover, the inhibition at 30 µM with BV-2 worked out at 11.1%.

As to `COC(=O)c1ccccc1NS(=O)(=O)c1ccc(Br)s1`, in series [1], the viability at 24 h, 30 µM stood at 99.1%. Besides, the inhibition at 30 µM with BV-2 is 43.8%.

In the case of `O=C(O)c1ccccc1NS(=O)(=O)c1ccc(Br)s1`, the viability at 24 h, 30 µM in series [1] turned out to be 96.5%. Also, the inhibition at 30 µM in the series with BV-2 came to 18.4%.

In the case of `CCN1C[C@]2(OC(=O)c3ccccc3NC(=O)C(C)C)CC[C@H](OC)[C@]34C1[C@@H](C[C@H]23)[C@@]1(O)C[C@H](OC)[C@H]2C[C@@H]4[C@]1(O)[C@H]2OC`, the viability at 24 h, 30 µM in series [1] is 105%. For the same compound, the inhibition at 30 µM in the series on BV-2 is 8.9%.

Turning to `CCC(=O)Nc1ccccc1C(=O)O[C@@]12CC[C@H](OC)[C@]34C([C@@H](C[C@H]13)[C@@]1(O)C[C@H](OC)[C@H]3C[C@@H]4[C@]1(O)[C@H]3OC)N(CC)C2`, in series [1], the viability at 24 h, 30 µM came out at 96.1%. Besides, the inhibition at 30 µM with BV-2 was 19.1%.

With `CCN1C[C@]2(OC(=O)c3ccccc3NC(=O)c3ccc(OC)c(OC)c3)CC[C@H](OC)[C@]34C1[C@@H](C[C@H]23)[C@@]1(O)C[C@H](OC)[C@H]2C[C@@H]4[C@]1(O)[C@H]2OC`, in series [1], the viability at 24 h, 30 µM is 102%. Moreover, the inhibition at 30 µM in the series with BV-2 stood at 14.3%.

Consider `CCN1C[C@]2(OC(=O)c3ccccc3NC(=O)c3ccccc3N(C)C)CC[C@H](OC)[C@]34C1[C@@H](C[C@H]23)[C@@]1(O)C[C@H](OC)[C@H]2C[C@@H]4[C@]1(O)[C@H]2OC`, for which, in series [1], the viability at 24 h, 30 µM came out at 101%. Further, in the series on BV-2, the inhibition at 30 µM is 34.7%.

For `CCN1C[C@]2(OC(=O)c3ccccc3NC(=O)c3ccc(C)cc3C)CC[C@H](OC)[C@]34C1[C@@H](C[C@H]23)[C@@]1(O)C[C@H](OC)[C@H]2C[C@@H]4[C@]1(O)[C@H]2OC`, the viability at 24 h, 30 µM in series [1] came out at 104%. Further, the inhibition at 30 µM with BV-2 is 16%.

Take `CCN1C[C@]2(OC(=O)c3ccccc3NC(=O)S(=O)(=O)c3cccc(Cl)c3)CC[C@H](OC)[C@]34C1[C@@H](C[C@H]23)[C@@]1(O)C[C@H](OC)[C@H]2C[C@@H]4[C@]1(O)[C@H]2OC`: the viability at 24 h, 30 µM in series [1] came out at 95.4%. In the series on BV-2, the inhibition at 30 µM is 13.9%.

In the case of `CCN1C[C@]2(OC(=O)c3ccccc3NC(=O)c3ccc(F)cc3)CC[C@H](OC)[C@]34C1[C@@H](C[C@H]23)[C@@]1(O)C[C@H](OC)[C@H]2C[C@@H]4[C@]1(O)[C@H]2OC`, in series [1], the viability at 24 h, 30 µM was found to be 104%. Further, in the series on BV-2, the inhibition at 30 µM turned out to be 22.3%.

In the case of `CCN1C[C@]2(OC(=O)c3ccccc3NC(=O)c3ccccc3Br)CC[C@H](OC)[C@]34C1[C@@H](C[C@H]23)[C@@]1(O)C[C@H](OC)[C@H]2C[C@@H]4[C@]1(O)[C@H]2OC`, the viability at 24 h, 30 µM in series [1] was 106%. Besides, the inhibition at 30 µM in the series on BV-2 was determined as 32.5%.

For `CCN1C[C@]2(OC(=O)c3ccccc3NC(=O)S(=O)(=O)c3ccccc3OC)CC[C@H](OC)[C@]34C1[C@@H](C[C@H]23)[C@@]1(O)C[C@H](OC)[C@H]2C[C@@H]4[C@]1(O)[C@H]2OC`, in series [1], the viability at 24 h, 30 µM stood at 103%. Also, the inhibition at 30 µM in the series on BV-2 is 15.2%.

For `CCN1C[C@]2(OC(=O)c3ccccc3NC(=O)S(=O)(=O)c3ccccc3Cl)CC[C@H](OC)[C@]34C1[C@@H](C[C@H]23)[C@@]1(O)C[C@H](OC)[C@H]2C[C@@H]4[C@]1(O)[C@H]2OC`, the viability at 24 h, 30 µM in series [1] was 100%. The inhibition at 30 µM in the series with BV-2 turned out to be 7.8%.

Turning to `CCN1C[C@]2(OC(=O)c3ccccc3NC(=O)S(=O)(=O)c3ccc(F)cc3C)CC[C@H](OC)[C@]34C1[C@@H](C[C@H]23)[C@@]1(O)C[C@H](OC)[C@H]2C[C@@H]4[C@]1(O)[C@H]2OC`, the viability at 24 h, 30 µM in series [1] came to 92.7%. For the same compound, the inhibition at 30 µM in the series with BV-2 is 32.2%.

`CCN1C[C@]2(OC(=O)c3ccccc3NC(=O)c3cccc(C)c3)CC[C@H](OC)[C@]34C1[C@@H](C[C@H]23)[C@@]1(O)C[C@H](OC)[C@H]2C[C@@H]4[C@]1(O)[C@H]2OC`: in series [1], the viability at 24 h, 30 µM is 112%. Also, in the series with BV-2, the inhibition at 30 µM stood at 15.6%.
